Tests used:
[1] = target: Endothelin receptor type B (rabbit); assay: Tested for binding affinity towards rabbit Endothelin B receptor
[2] = target: Endothelin-1 receptor (rabbit); assay: Tested for binding affinity towards rabbit Endothelin A receptor

C/C=C/C=C/C(=O)O[C@@H]1C=C2COC(O)[C@]2(O)[C@@]2(C)CCCC(C)(C)C12 (stereo partly drawn) [(2E,4E)-Hexa-2,4-dienoic acid (5R,9aS,9bS)-1,9b-dihydroxy-6,6,9a-trimethyl-1,3,5,5a,6,7,8,9,9a,9b-decahydro-naphtho[1,2-c]furan-5-yl ester]
IC50 [1]: 70 µM | IC50 [2]: 50 µM
